Experimental data as given in ChEMBL document CHEMBL1131674, “Synthesis and cytotoxic activities of 6-chloro-7-arylamino-5,8-isoquinolinediones” (Bioorg Med Chem Lett, 1999).
Values after ≈ are worked out from the molar mass of the structure shown.

Columns and labels:
Type in all cases: functional, cell-based, Homo sapiens
A549 = assay: In vitro cytotoxic activity against A 549 (non-small cell lung) using SRB (sulforhodamine B) assay
HCT-15 = assay: In vitro cytotoxic activity against HCT-15 (colon) using SRB (sulforhodamine B) assay
SK-MEL-2 = assay: In vitro cytotoxic activity against SK-MEL-2 (melanoma) using SRB (sulforhodamine B) assay
SK-OV-3 = assay: In vitro cytotoxic activity against SK-OV-3 (ovarian) using SRB (sulforhodamine B) assay
XF498 = assay: In vitro cytotoxic activity against XF 498 (CNS) using SRB (sulforhodamine B) assay
[1] = Homo sapiens, A549, read-out: IC50
[2] = Homo sapiens, HCT-15, read-out: IC50
[3] = Homo sapiens, SK-MEL-2, read-out: IC50
[4] = Homo sapiens, SK-OV-3, read-out: IC50
[5] = Homo sapiens, XF498, read-out: IC50

Molecule | IC50 (A549; [1]) [µg/mL] | IC50 (HCT-15; [2]) [µg/mL] | IC50 (SK-MEL-2; [3]) [µg/mL] | IC50 (SK-OV-3; [4]) [µg/mL] | IC50 (XF498; [5]) [µg/mL] | IC50 (A549; a549) [µg/mL] | IC50 (HCT-15; hct-15) [µg/mL] | IC50 (SK-MEL-2; sk-mel-2) [µg/mL] | IC50 (SK-OV-3; sk-ov-3) [µg/mL] | IC50 (XF498; xf498) [µg/mL]
CCOc1ccc(NC2=C(Cl)C(=O)c3cccnc3C2=O)cc1 | 0.96 (≈ 2.92 µM) | 0.32 (≈ 0.973 µM) | 0.34 (≈ 1.03 µM) | 0.33 (≈ 1 µM) | 0.55 (≈ 1.67 µM) | – | – | – | – | –
CCOc1ccc(NC2=C(Cl)C(=O)c3ccncc3C2=O)cc1 | 0.42 (≈ 1.28 µM) | 0.03 (≈ 0.0913 µM) | 0.04 (≈ 0.122 µM) | 0.34 (≈ 1.03 µM) | 0.27 (≈ 0.821 µM) | – | – | – | – | –
Cc1ccc(NC2=C(Cl)C(=O)c3ccncc3C2=O)cc1 | 1.22 (≈ 4.08 µM) | 0.11 (≈ 0.368 µM) | 0.17 (≈ 0.569 µM) | 1.54 (≈ 5.16 µM) | 1.06 (≈ 3.55 µM) | – | – | – | – | –
O=C1C(Cl)=C(Nc2ccc(Cl)cc2)C(=O)c2ncccc21 | 5.03 (≈ 15.8 µM) | 0.34 (≈ 1.07 µM) | 1.3 (≈ 4.07 µM) | 1.33 (≈ 4.17 µM) | 3.31 (≈ 10.4 µM) | – | – | – | – | –
Cc1ccc(NC2=C(Cl)C(=O)c3cccnc3C2=O)cc1 | 1.14 (≈ 3.82 µM) | 0.33 (≈ 1.1 µM) | 0.42 (≈ 1.41 µM) | 1.27 (≈ 4.25 µM) | 1.26 (≈ 4.22 µM) | – | – | – | – | –
O=C1/C(=N/c2ccc(O)cc2)C(Cl)=C(O)c2cccnc21 | 1.56 (≈ 5.19 µM) | 0.86 (≈ 2.86 µM) | 0.47 (≈ 1.56 µM) | 1.27 (≈ 4.22 µM) | 0.97 (≈ 3.23 µM) | – | – | – | – | –
N#Cc1ccc(NC2=C(Cl)C(=O)c3ccncc3C2=O)cc1 | 0.8 (≈ 2.58 µM) | 0.13 (≈ 0.42 µM) | 0.22 (≈ 0.71 µM) | 0.21 (≈ 0.678 µM) | 0.3 (≈ 0.969 µM) | – | – | – | – | –
O=C1C(Cl)=C(Nc2ccc(CCO)cc2)C(=O)c2cnccc21 | 0.61 (≈ 1.86 µM) | 0.18 (≈ 0.548 µM) | 0.08 (≈ 0.243 µM) | 0.63 (≈ 1.92 µM) | 0.06 (≈ 0.183 µM) | – | – | – | – | –
O=C1C(Cl)=C(Nc2ccccc2)C(=O)c2cnccc21 | 1.28 (≈ 4.5 µM) | 0.1 (≈ 0.351 µM) | 0.52 (≈ 1.83 µM) | 0.86 (≈ 3.02 µM) | 0.96 (≈ 3.37 µM) | – | – | – | – | –
O=C1C(Cl)=C(Nc2ccc(Br)cc2)C(=O)c2ncccc21 | 4.28 (≈ 11.8 µM) | 0.34 (≈ 0.935 µM) | 1.26 (≈ 3.47 µM) | 0.92 (≈ 2.53 µM) | 2.83 (≈ 7.78 µM) | – | – | – | – | –
O=C1C(Cl)=C(Nc2ccccc2)C(=O)c2ncccc21 | 2.3 (≈ 8.08 µM) | 0.74 (≈ 2.6 µM) | 1.42 (≈ 4.99 µM) | 1.34 (≈ 4.71 µM) | 1.33 (≈ 4.67 µM) | – | – | – | – | –
O=C1C(Cl)=C(Nc2ccc(Cl)cc2)C(=O)c2cnccc21 | 1.27 (≈ 3.98 µM) | 0.31 (≈ 0.971 µM) | 1.22 (≈ 3.82 µM) | 1.86 (≈ 5.83 µM) | 1.54 (≈ 4.83 µM) | – | – | – | – | –
COc1ccc(NC2=C(Cl)C(=O)c3cccnc3C2=O)cc1 | 1.27 (≈ 4.04 µM) | 0.33 (≈ 1.05 µM) | 1.33 (≈ 4.23 µM) | 1.3 (≈ 4.13 µM) | 1.26 (≈ 4 µM) | – | – | – | – | –
O=C1C(Cl)=C(Nc2ccc(I)cc2)C(=O)c2cnccc21 | 1.96 (≈ 4.77 µM) | 0.1 (≈ 0.244 µM) | 0.23 (≈ 0.56 µM) | 0.29 (≈ 0.706 µM) | 0.22 (≈ 0.536 µM) | – | – | – | – | –
O=C1C(Cl)=C(Nc2ccc(F)cc2)C(=O)c2cnccc21 | 0.66 (≈ 2.18 µM) | 0.07 (≈ 0.231 µM) | 0.13 (≈ 0.429 µM) | 0.17 (≈ 0.562 µM) | 0.49 (≈ 1.62 µM) | – | – | – | – | –
O=C1C(Cl)=C(Nc2ccc(Br)cc2)C(=O)c2cnccc21 | 1.1 (≈ 3.03 µM) | 0.18 (≈ 0.495 µM) | 0.66 (≈ 1.82 µM) | 0.97 (≈ 2.67 µM) | 1.28 (≈ 3.52 µM) | – | – | – | – | –
N#Cc1ccc(NC2=C(Cl)C(=O)c3cccnc3C2=O)cc1 | 1.7 (≈ 5.49 µM) | 1.45 (≈ 4.68 µM) | 0.6 (≈ 1.94 µM) | 0.55 (≈ 1.78 µM) | 1.47 (≈ 4.75 µM) | – | – | – | – | –
O=C1C(Cl)=C(Nc2ccc(I)cc2)C(=O)c2ncccc21 | 4.29 (≈ 10.4 µM) | 1.27 (≈ 3.09 µM) | 3.3 (≈ 8.04 µM) | 1.62 (≈ 3.95 µM) | 3.61 (≈ 8.79 µM) | – | – | – | – | –
O=C1/C(=N/c2ccc(O)cc2)C(Cl)=C(O)c2ccncc21 | 0.36 (≈ 1.2 µM) | 0.05 (≈ 0.166 µM) | 0.06 (≈ 0.2 µM) | 0.3 (≈ 0.998 µM) | 0.32 (≈ 1.06 µM) | – | – | – | – | –
COc1ccc(NC2=C(Cl)C(=O)c3ccncc3C2=O)cc1 | 0.5 (≈ 1.59 µM) | 0.02 (≈ 0.0635 µM) | 0.02 (≈ 0.0635 µM) | 0.28 (≈ 0.89 µM) | 0.31 (≈ 0.985 µM) | – | – | – | – | –
O=C1C(Cl)=C(Nc2ccc(F)cc2)C(=O)c2ncccc21 | 1.25 (≈ 4.13 µM) | 0.18 (≈ 0.595 µM) | 1.39 (≈ 4.59 µM) | 0.5 (≈ 1.65 µM) | 0.36 (≈ 1.19 µM) | – | – | – | – | –
CCc1ccc(NC2=C(Cl)C(=O)c3cccnc3C2=O)cc1 | 1.35 (≈ 4.32 µM) | 1.39 (≈ 4.44 µM) | 1.97 (≈ 6.3 µM) | 1.35 (≈ 4.32 µM) | 0.66 (≈ 2.11 µM) | – | – | – | – | –
CCc1ccc(NC2=C(Cl)C(=O)c3ccncc3C2=O)cc1 | 0.62 (≈ 1.98 µM) | 0.05 (≈ 0.16 µM) | 0.07 (≈ 0.224 µM) | 0.34 (≈ 1.09 µM) | 0.33 (≈ 1.06 µM) | – | – | – | – | –
O=C1C(Cl)=C(Nc2ccc(CCO)cc2)C(=O)c2ncccc21 | 1.11 (≈ 3.38 µM) | 0.48 (≈ 1.46 µM) | 0.36 (≈ 1.1 µM) | 0.42 (≈ 1.28 µM) | 0.52 (≈ 1.58 µM) | – | – | – | – | –
COC1=C(N)C(=O)c2nc(-c3nc(C(=O)O)c(C)c(-c4ccc(OC)c(OC)c4O)c3N)ccc2C1=O [STREPTONIGRIN] | 0.33 (≈ 0.652 µM) | 0.02 (≈ 0.0395 µM) | 0.02 (≈ 0.0395 µM) | 0.28 (≈ 0.553 µM) | 0.31 (≈ 0.612 µM) | – | – | – | – | –
CISPLATIN | – | – | – | – | – | 1.8 | 2.9 | 1.38 | 2.07 | 2.74
